Laboratory results: patent US8658646B2, “Pyrrolopyrazine kinase inhibitors” (Hoffmann-LaRoche Inc., priority 2011, dated 2014)

Legend:
[1] = molecular target: T1, JAK3: Recombinant human kinase domain (Homo sapiens, UniProt P52333); assay: Determination of IC50 of Janus Kinase (JAK) inhibition, radioactive end-point 33P-ATP assay, JAK3; assay type: biochemical; conditions: ATP 1.5 uM, peptide 50 uM, 20 minutes, read-out: JAK3-INHIB-DR/v1~NO ADDITIVE~Enzyme_Conc = 100
T1 construct: JAK3: Recombinant human kinase domain from Millipore (Cat #14-629) or prepared; purchased Millipore 14-629

[2] = molecular target: T2, recombinant human SYK360-635 (Homo sapiens, UniProt P43405); assay: Determination of IC50 of Spleen Tyrosine Kinase (SYK) inhibition, 33P ATP filtration assay; assay type: biochemical; conditions: SYK aa 360-635 0.5 nM; ATP 20 μM, peptide 5 μM, 0.1% BSA; read-out: SYK_ENZYME_FILTRATION/v1, BSA
T2 construct: made in house

T1 sequence (P52333 822-1111 limits assumed): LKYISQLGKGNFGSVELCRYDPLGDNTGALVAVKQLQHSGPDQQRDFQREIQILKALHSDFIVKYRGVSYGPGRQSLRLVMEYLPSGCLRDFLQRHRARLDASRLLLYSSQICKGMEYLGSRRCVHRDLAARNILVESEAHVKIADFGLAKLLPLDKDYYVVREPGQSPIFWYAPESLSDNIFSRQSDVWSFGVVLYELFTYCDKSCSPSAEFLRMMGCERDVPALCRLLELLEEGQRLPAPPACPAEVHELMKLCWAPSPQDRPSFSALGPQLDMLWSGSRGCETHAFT

IC50 [1] | IC50 [2] | SMILES
0.00286 µM | 0.0103 µM | Cn1nc(-c2cnc3[nH]cc(C(=O)N[C@H]4CC[C@@H](O)C4)c3n2)c2ccc(F)cc21 (relative stereo) [Example I-46, 2-(6-Fluoro-1-methyl-1H-indazol-3-yl)-5H-pyrrolo[2,3-b]pyrazine-7-carboxylic acid (cis-3-hydroxy-cyclopentyl)-amide]
0.00531 µM | 0.0219 µM | Cn1nc(-c2cnc3[nH]cc(C(=O)N[C@H]4CC[C@H](O)C4)c3n2)c2ccc(F)cc21 (relative stereo) [Example I-47, 2-(6-Fluoro-1-methyl-1H-indazol-3-yl)-5H-pyrrolo[2,3-b]pyrazine-7-carboxylic acid (trans-3-hydroxy-cyclopentyl)-amide]
0.0106 µM | 0.0444 µM | Cn1nc(-c2cnc3[nH]cc(C(=O)N[C@H]4CC[C@@H](CC#N)C4)c3n2)c2ccc(F)cc21 (relative stereo) [Example I-57, 2-(6-Fluoro-1-methyl-1H-indazol-3-yl)-5H-pyrrolo[2,3-b]pyrazine-7-carboxylic acid (cis-3-cyanomethyl-cyclopentyl)-amide]
0.0555 µM | 0.0193 µM | Cn1nc(-c2cnc3[nH]cc(C(=O)N[C@@H]4CCC[C@@H](O)C4)c3n2)c2ccc(Cl)cc21 (relative stereo) [Example I-148, 2-(6-Chloro-1-methyl-1H-indazol-3-yl)-5H-pyrrolo[2,3-b]pyrazine-7-carboxylic acid (trans-3-hydroxy-cyclohexyl)-amide]
0.0103 µM | 0.052 µM | Cn1nc(-c2cnc3[nH]cc(C(=O)N[C@@H]4CCC[C@H](O)C4)c3n2)c2ccc(Cl)cc21 (relative stereo) [Example I-149, 2-(6-Chloro-1-methyl-1H-indazol-3-yl)-5H-pyrrolo[2,3-b]pyrazine-7-carboxylic acid (cis-3-hydroxy-cyclohexyl)-amide]
0.00547 µM | 0.0851 µM | Cn1nc(-c2cnc3[nH]cc(C(=O)N[C@@H]4CCC[C@@H](C#N)C4)c3n2)c2ccc(Cl)cc21 (relative stereo) [Example I-156, 2-(6-Chloro-1-methyl-1H-indazol-3-yl)-5H-pyrrolo[2,3-b]pyrazine-7-carboxylic acid (trans-3-cyano-cyclohexyl)-amide]
0.197 µM | 0.0751 µM | Cn1nc(-c2cnc3[nH]cc(C(=O)N[C@@H]4CCC[C@H](C#N)C4)c3n2)c2ccc(Cl)cc21 (relative stereo) [Example I-167, 2-(6-Chloro-1-methyl-1H-indazol-3-yl)-5H-pyrrolo[2,3-b]pyrazine-7-carboxylic acid (cis-3-cyano-cyclohexyl)-amide]
0.0105 µM | 0.00757 µM | C[C@H](O)[C@H](C)NC(=O)c1c[nH]c2ncc(-c3nn(C)c4cc(Cl)ccc34)nc12 (relative stereo) [Example I-201, 2-(6-Chloro-1-methyl-1H-indazol-3-yl)-5H-pyrrolo[2,3-b]pyrazine-7-carboxylic acid (trans-2-hydroxy-1-methyl-propyl)-amide]
0.263 µM | 0.197 µM | CC(NC(=O)c1c[nH]c2ncc(-c3nn(C)c4cc(F)ccc34)nc12)C(O)C1CCOCC1 (single isomer, unassigned) [Example I-203, 2-(6-Fluoro-1-methyl-1H-indazol-3-yl)-5H-pyrrolo[2,3-b]pyrazine-7-carboxylic acid [cis-2-hydroxy-1-methyl-2-(tetrahydro-pyran-4-yl)-ethyl]-amide]
0.217 µM | 0.205 µM | CC(NC(=O)c1c[nH]c2ncc(-c3nn(C)c4cc(F)ccc34)nc12)C(O)C1CCOCC1 (single isomer, unassigned) [Example I-204, 2-(6-Fluoro-1-methyl-1H-indazol-3-yl)-5H-pyrrolo[2,3-b]pyrazine-7-carboxylic acid [trans-2-hydroxy-1-methyl-2-(tetrahydro-pyran-4-yl)-ethyl]-amide]
0.0192 µM | 0.0542 µM | C[C@@H](NC(=O)c1c[nH]c2ncc(-c3nn(C)c4cc(Cl)ccc34)nc12)c1ccccc1 [Example I-25, 2-(6-Chloro-1-methyl-1H-indazol-3-yl)-5H-pyrrolo[2,3-b]pyrazine-7-carboxylic acid ((R)-1-phenyl-ethyl)-amide]
0.000335 µM | 0.0531 µM | Cc1ccc2c(-c3cnc4[nH]cc(C(=O)N[C@H](C)C(=O)N5CC(C#N)C5)c4n3)ncn2c1 [Example I-31, 2-(6-Methyl-imidazo[1,5-a]pyridin-1-yl)-5H-pyrrolo[2,3-b]pyrazine-7-carboxylic acid [(R)-2-(3-cyano-azetidin-1-yl)-1-methyl-2-oxo-ethyl]-amide]
0.019 µM | 0.0272 µM | Cn1nc(-c2cnc3[nH]cc(C(=O)N[C@@H]4CC[C@@H](C#N)C4)c3n2)c2ccc(Cl)cc21 [Example I-36, 2-(6-Chloro-1-methyl-1H-indazol-3-yl)-5H-pyrrolo[2,3-b]pyrazine-7-carboxylic acid ((1R,3R)-3-cyano-cyclopentyl)-amide]
0.0392 µM | 0.0064 µM | Cn1nc(-c2cnc3[nH]cc(C(=O)NC4CCC(N)C4)c3n2)c2ccc(Cl)cc21 (centres unmarked) [Example I-37, 2-(6-Chloro-1-methyl-1H-indazol-3-yl)-5H-pyrrolo[2,3-b]pyrazine-7-carboxylic acid (3-amino-cyclopentyl)-amide]
0.0123 µM | – | C[C@@H](NC(=O)c1c[nH]c2ncc(-c3nn(CCN(C)C)c4cc(Cl)ccc34)nc12)C(=O)N1CC(C#N)C1 [Example I-230, 2-[6-Chloro-1-(2-dimethylamino-ethyl)-1H-indazol-3-yl]-5H-pyrrolo[2,3-b]pyrazine-7-carboxylic acid [(R)-2-(3-cyano-azetidin-1-yl)-1-methyl-2-oxo-ethyl]-amide]
0.00208 µM | – | C[C@@H](NC(=O)c1c[nH]c2ncc(-c3nn(CCN4CCOCC4)c4cc(Cl)ccc34)nc12)C(=O)N1CC(C#N)C1 [Example I-231, 2-[6-Chloro-1-(2-morpholin-4-yl-ethyl)-1H-indazol-3-yl]-5H-pyrrolo[2,3-b]pyrazine-7-carboxylic acid [(R)-2-(3-cyano-azetidin-1-yl)-1-methyl-2-oxo-ethyl]-amide]
0.00356 µM | – | C[C@@H](NC(=O)c1c[nH]c2ncc(-c3nn(CCc4ccccn4)c4cc(Cl)ccc34)nc12)C(=O)N1CC(C#N)C1 [Example I-232, 2-[6-Chloro-1-(2-pyridin-2-yl-ethyl)-1H-indazol-3-yl]-5H-pyrrolo[2,3-b]pyrazine-7-carboxylic acid [(R)-2-(3-cyano-azetidin-1-yl)-1-methyl-2-oxo-ethyl)-amide]
0.00129 µM | – | C[C@@H](NC(=O)c1c[nH]c2ncc(-c3nn(Cc4ccccn4)c4cc(Cl)ccc34)nc12)C(=O)N1CC(C#N)C1 [Example I-233, 2-(6-Chloro-1-pyridin-2-ylmethyl-1H-indazol-3-yl)-5H-pyrrolo[2,3-b]pyrazine-7-carboxylic acid [(R)-2-(3-cyano-azetidin-1-yl)-1-methyl-2-oxo-ethyl]-amide]
0.00049 µM | – | COC[C@H](C)NC(=O)c1c[nH]c2ncc(-c3nn(Cc4cccnc4)c4cc(Cl)ccc34)nc12 [Example I-235, 2-(6-Chloro-1-pyridin-3-ylmethyl-1H-indazol-3-yl)-5H-pyrrolo[2,3-b]pyrazine-7-carboxylic acid ((S)-2-methoxy-1-methyl-ethyl)-amide]
0.000805 µM | – | COC[C@H](C)NC(=O)c1c[nH]c2ncc(-c3nn(CCN4CCOCC4)c4cc(Cl)ccc34)nc12 [Example I-236, 2-[6-Chloro-1-(2-morpholin-4-yl-ethyl)-1H-indazol-3-yl]-5H-pyrrolo[2,3-b]pyrazine-7-carboxylic acid ((S)-2-methoxy-1-methyl-ethyl)-amide]
0.000815 µM | – | COC[C@H](C)NC(=O)c1c[nH]c2ncc(-c3nn(CCN4CCOCC4)c4cc(F)ccc34)nc12 [Example I-238, 2-[6-Fluoro-1-(2-morpholin-4-yl-ethyl)-1H-indazol-3-yl]-5H-pyrrolo[2,3-b]pyrazine-7-carboxylic acid ((S)-2-methoxy-1-methyl-ethyl)-amide]
0.00184 µM | – | COC[C@H](C)NC(=O)c1c[nH]c2ncc(-c3nn(CCN(C)C)c4cc(F)ccc34)nc12 [Example I-239, 2-[1-(2-Dimethylamino-ethyl)-6-fluoro-1H-indazol-3-yl]-5H-pyrrolo[2,3-b]pyrazine-7-carboxylic acid ((S)-2-methoxy-1-methyl-ethyl)-amide]
0.000615 µM | – | COC[C@H](C)NC(=O)c1c[nH]c2ncc(-c3nn(Cc4ccccn4)c4cc(F)ccc34)nc12 [Example I-240, 2-(6-Fluoro-1-pyridin-2-ylmethyl-1H-indazol-3-yl)-5H-pyrrolo[2,3-b]pyrazine-7-carboxylic acid ((S)-2-methoxy-1-methyl-ethyl)-amide]
0.0712 µM | – | Cn1nc(-c2cnc3[nH]cc(C(=O)NC(C)(C)C)c3n2)c2cc(OC(F)F)ccc21 [Example I-284, 2-(5-Difluoromethoxy-1-methyl-1H-indazol-3-yl)-5H-pyrrolo[2,3-b]pyrazine-7-carboxylic acid tert-butylamide]
0.444 µM | – | Cn1nc(-c2cnc3[nH]cc(C(=O)NC(C)(C)C)c3n2)c2ccc(Cl)cc21 [Example I-305, 2-(6-Chloro-1-methyl-1H-indazol-3-yl)-5H-pyrrolo[2,3-b]pyrazine-7-carboxylic acid tert-butylamide]
0.0286 µM | – | CC(C)NC(=O)c1c[nH]c2ncc(-c3nn(CC4CC4)c4cc(Cl)ccc34)nc12 [Example I-309, 2-(6-Chloro-1-cyclopropylmethyl-1H-indazol-3-yl)-5H-pyrrolo[2,3-b]pyrazine-7-carboxylic acid isopropylamide]
> 1 µM | – | Cn1nc(-c2cnc3[nH]cc(C(=O)NC(C)(C)CO)c3n2)c2ccc(F)cc21 [Example I-363, 2-(6-Fluoro-1-methyl-1H-indazol-3-yl)-5H-pyrrolo[2,3-b]pyrazine-7-carboxylic acid (2-hydroxy-1,1-dimethyl-ethyl)-amide]
